Test results published in patent US20070142396A1, “Treatment of pain with 1-[3-[4-(3-chlorophenyl)-1-piperazinyl]propyl]-5-methoxy-3,4-dihydro-2(1H)-quinolone or salt thereof” (Vela Pharmaceuticals, Inc., priority 2005, published 2007).

What was measured:
Assay type in all cases: in vivo, rat
[1] = test system: rats with spinal nerve ligature (Chung neuropathic pain model); assay: Chung neuropathic pain model, tactile stimulation, second experiment (Example 3); settings: acute, morphine 128 mg/kg p.o.; for change of force inducing paw withdrawal vs vehicle: lesioned paw
Experimental: (§1) For tactile stimulation, the animal was placed under an inverted Plexiglas® box (17×11×14 cm) on a grid floor. The tip of an electronic Von Frey probe (Bioseb, Model 1610, Chaville, France) was applied with increasing pressure to the non-lesioned hindpaw or the lesioned hindpaw. The force required to induce paw withdrawal was automatically recorded. This procedure was carried out three times for each paw, and the mean force per paw was calculated to provide basic scores per animal.
(§2) The rats used in this experiment were the same rats used in Example 2. The materials and methods for this experiment were identical to those for Example 2 with the following exceptions: there was a 1-week washout between the two experiments, and the rats weighed 290-403 g at the start of this experiment. Prior to receiving drug treatment, all animals were submitted to tactile stimulation and assigned to treatment groups matched on the basis of their pain response. No account was taken of the treatment administered during the first experiment in assigning animals to treatment groups for this experiment.
(§3) All of the substances were administered orally. Morphine, dissolved in distilled water, was administered at 128 mg/kg dose p.o. Rats were tested 30 minutes, 1 hour, 2 hours, and 4 hours after administration of the substances.

[2] = test system: rats with spinal nerve ligature (Chung neuropathic pain model); assay: Chung spinal nerve ligation (L5 and L6) neuropathic pain model, thermal stimulation (Example 2); settings: for change of paw-withdrawal latency vs vehicle: morphine 16 mg/kg i.p.
Excerpt: (§4) The Chung neuropathic pain model (Kim and Chung, Pain, 50: 355-363, 1992), employs spinal nerve ligation (SNL) in a rat. Tight ligature of spinal nerves in a rat is associated with hyperalgesia, allodynia and spontaneous pain. Antihyperalgesics reduce these chronic signs of pain hypersensitivity. Thus, the Chung model permits testing of the antihyperalgesic activity of compounds in rats with neuropathic pain. The Chung model constitutes a model for peripheral neuropathic pain in humans, and was employed as follows.
(§5) Male Rj: Wistar (Han) rats, weighing 264-369 g at the beginning of the experiment, were obtained from Elevage Janvier, 53940 Le Genest-Saint-Isle, France. The rats were acclimatized to laboratory conditions for at least 5 days before the surgery phase of the experiment. The rats were housed in groups of five in macrolon cages (41×25×14 cm) on wood litter (Litalabo—SPPS, 95100 Argenteuil, France) with free access to food (code 113—SAFE, 91360 Epinay-sur-Orge, France) and water until tested. The animal houses were maintained under artificial lighting (12 hours) between 7:00 AM and 7:00 PM in a controlled ambient temperature of 21±3° C., and with relative humidity maintained at 40-70%.
(§6) Rats (264-369 g) were anesthetized with sodium pentobarbital (50 mg/kg i.p.), and an incision at the L4-S2 level was made to expose the left L5 and L6 spinal nerves. A ligature was tied tightly around each nerve. The wound was then sutured. The rats received an i.m. injection of 50,000 IU penicillin G and were allowed to recover. At least 2 weeks after the surgery, when the chronic state was fully installed, rats were submitted consecutively to tactile and thermal stimulation of both the non-lesioned and the lesioned hindpaws.
(§7) Doses of OPC-14523 were prepared in stock solutions (weight per volume, W/V), then in dilutions (volume per volume, V/V), as appropriate. The compound was dispersed in 0.5% tragacanth in distilled water. Morphine was dissolved in physiological saline as a reference standard for treatment of pain. The solutions for the test and reference substances were prepared fresh on the day of the experiment.
(§8) The vehicle, OPC-14523, and reference (morphine) compound were each administered in a volume of 5 ml/kg body weight. The doses of OPC-14523 were expressed in mg of substance per kg body weight and administered orally (p.o.). The vehicle control was also administered orally. The dose of morphine was expressed in mg of hydrochloride salt per kg body weight and administered i.p.
(§9) Each animal was tested at 30 minutes, 1 hour, 2 hours and 4 hours after the administration of a substance. Testing occurred in the morning.
(§10) To evaluate chronic drug administration and hypersensitivity induction, animals received a second substance treatment in the afternoon, after acute testing. The animals then received twice-daily substance treatment for an additional 9 days. To test for induction of hypersensitivity, the animals were tested, on the ninth day, 30 minutes before the first substance administration in the morning. The effect of chronic administration was tested on the tenth day 30 minutes, 1 hour, 2 hours and 4 hours after the administration of the substance in the morning.
An apparatus (Ugo Basile, Product reference: 7371, Comerio, Italy) consisted of six individual Plexiglas® boxes (17×11×14 cm) placed upon an elevated glass floor. A rat was placed in the box and left free to habituate for 10 minutes. Then, a mobile infrared radiant source was focused under the non-lesioned and lesioned hindpaws. The paw-withdrawal latencies were automatically recorded. Paw withdrawal interrupts the reflected radiation and switches off the counter and the light source. In order to prevent tissue damage, the test was terminated after 45 seconds if no reaction was noted.
Prior to receiving drug treatment, all animals were submitted to tactile stimulation and assigned to treatment groups, matched on the basis of their pain response. […]

[3] = test system: rats with spinal nerve ligature (Chung neuropathic pain model); assay: Chung spinal nerve ligation (L5 and L6) neuropathic pain model, tactile stimulation with electronic Von Frey probe (Example 2)
Excerpt: as §4, §5, §6, §7, §8, §9, §10, §1
Prior to receiving drug treatment, all animals were submitted to tactile stimulation and assigned to treatment groups, matched on the basis of their pain response. Each treatment group consisted of eight rats. The testing was performed blind. […]

[4] = test system: rats with spinal nerve ligature (Chung neuropathic pain model); assay: Chung neuropathic pain model, cold allodynia on cold plate (Example 3); settings: morphine 128 mg/kg p.o.; for change of total number of paw withdrawal responses: cold plate
Excerpt: as §2, §3
Behavioral testing was carried out by measuring cold allodynia using an apparatus consisting of a cold plate maintained at 4±1° C. Rats were individually placed on the cold plate for a period of 5 minutes. The latency to the first paw withdrawal response and the number and total duration of withdrawal responses in 5 minutes were recorded for both the lesioned and the non-lesioned hindpaws.

[5] = hypersensitivity test after 8 days of twice daily administration, morphine

Question: How did the “change of force inducing paw withdrawal vs vehicle” value ([1]; 30 minutes, p<0.05) turn out when `CN1CC[C@]23c4c5ccc(O)c4O[C@H]2[C@@H](O)C=C[C@H]3[C@H]1C5` [Morphine, morphine, reference compound] was run?
Answer: The value was “+137%”.

Question: And the “change of force inducing paw withdrawal vs vehicle” value ([1]; 1 hour, p<0.01)?
Answer: Its value is “+198%”.

Question: And the “change of force inducing paw withdrawal vs vehicle” value ([1]; 2 hours, p=0.05)?
Answer: The value was “+168%”.

Question: What about the “effect on force inducing paw withdrawal” value ([1]; non-lesioned paw) of the same compound?
Answer: Its value is “no effects”.

Question: And the “change of paw-withdrawal latency vs vehicle” value ([2]; acute, lesioned paw, 30 minutes)?
Answer: The value was “+132%”.

Question: And the “change of paw-withdrawal latency vs vehicle” value ([2]; acute, lesioned paw, 1 hour)?
Answer: The value was “+121%”.

Question: What about the “change of paw-withdrawal latency vs vehicle” value ([2]; acute, lesioned paw, 4 hours) of the same compound?
Answer: Its value is “+204%”.

Question: What about the “change of paw-withdrawal latency vs vehicle” value ([2]; acute, non-lesioned paw, 30 minutes, p<0.05) of the same compound?
Answer: Its value is “+15%”.

Question: What about the “change of paw-withdrawal latency vs vehicle” value ([2]; chronic, lesioned paw, 30 minutes, p<0.05) of the same compound?
Answer: The value was “+108%”.

Question: What about the “change of paw-withdrawal latency vs vehicle” value ([2]; chronic, lesioned paw, 1 hour, p<0.05) of the same compound?
Answer: The value was 93%.

Question: And the “change of paw-withdrawal latency vs vehicle” value ([2]; chronic, non-lesioned paw, 2 hours, p<0.05)?
Answer: The value was −24%.

Question: What about the “change of paw-withdrawal latency vs vehicle” value ([2]; chronic, non-lesioned paw, 4 hours, p<0.05) of the same compound?
Answer: Its value is −23%.

Question: What about the “Paw Withdrawal Latency (s) Lesioned Paw” value [2, 5] of the same compound?
Answer: The value was 11.7 (NS) s.

Question: What about the “Paw Withdrawal Latency (s) Non-lesioned Paw” value [2, 5] of the same compound?
Answer: Its value is 34.5 (NS) s.

Question: What about the “change of force inducing paw withdrawal vs vehicle” value ([3]; acute, morphine 16 mg/kg i.p., lesioned paw, 30 minutes) of the same compound?
Answer: The value was “+206%”.

Question: And the “change of force inducing paw withdrawal vs vehicle” value ([3]; acute, morphine 16 mg/kg i.p., lesioned paw, 1 hour)?
Answer: The value was “+124%”.

Question: And the “effect on force inducing paw withdrawal” value ([3]; acute, morphine 16 mg/kg i.p., lesioned paw, 2 hours)?
Answer: Its value is “tended to increase”.

Question: And the “effect on force inducing paw withdrawal” value ([3]; acute, morphine 16 mg/kg i.p., non-lesioned paw)?
Answer: Its value is “no effects”.

Question: What about the “change of force inducing paw withdrawal vs vehicle” value ([3]; chronic, day 10, morphine, lesioned paw, 30 minutes, p<0.01) of the same compound?
Answer: The value was “+86%”.

Question: And the “change of force inducing paw withdrawal vs vehicle” value ([3]; chronic, day 10, morphine, lesioned paw, 1 hour, p<0.001)?
Answer: The value was “+223%”.

Question: And the “change of force inducing paw withdrawal vs vehicle” value ([3]; chronic, day 10, morphine, lesioned paw, 2 hours, p=0.09)?
Answer: Its value is −50%.

Question: And the “effect on force inducing paw withdrawal” value ([3]; chronic, day 10, morphine, non-lesioned paw)?
Answer: Its value is “weak, variable effects”.

Question: And the “Force Inducing Paw Withdrawal (g) Lesioned Paw” value [3, 5]?
Answer: The value was 15.1 (NS) g.

Question: What about the “Force Inducing Paw Withdrawal (g) Non-lesioned Paw” value [3, 5] of the same compound?
Answer: The value was 73.7 (NS) g.

Question: What about the “effect on force inducing paw withdrawal vs vehicle control” value ([3]; hypersensitivity test, repeated treatment with morphine, lesioned or non-lesioned paw) of the same compound?
Answer: The value was “no significant effects”.

Question: What about the “effect on paw-withdrawal latency of the first withdrawal” value ([4]; cold plate 4°C, not statistically significant) of the same compound?
Answer: The value was “tended to increase”.

Question: And the “change of total number of paw withdrawal responses” value ([4]; 30 minutes, p<0.001)?
Answer: The value was −61%.

Question: And the “change of total number of paw withdrawal responses” value ([4]; 1 hour, p<0.05)?
Answer: Its value is −65%.

Question: What about the “change of total number of paw withdrawal responses” value ([4]; 2 hours, p<0.01) of the same compound?
Answer: Its value is −51%.

Question: What about the “change of total number of paw withdrawal responses” value ([4]; 4 hours, p<0.01) of the same compound?
Answer: The value was −56%.
